Results as given in publication PMC8353826, “Celastrol exerts a neuroprotective effect by directly binding to HMGB1 protein in cerebral ischemia–reperfusion” (Journal of Neuroinflammation, 2021).

What was measured:
HMGB1 B box [1] = target: T1, HMGB1 B box (Homo sapiens, UniProt P09429); assay: in-gel fluorescence labelling by probe, click TAMRA azide; assay type: binding; conditions: labelled compound; labelling in presence of IAA; PBS
T1 construct: B box domain, residues 90-175, N-terminal 6-His tag, modified pET-24d, E. coli BL21
T1 sequence (P09429 90-175): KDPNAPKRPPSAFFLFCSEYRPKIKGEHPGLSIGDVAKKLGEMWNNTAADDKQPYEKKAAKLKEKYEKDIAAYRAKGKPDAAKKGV

[2] = target: T2, HMGB1 (primary rat cortical neurons) (Rattus norvegicus, UniProt P63159); assay: probe pull-down, TMT LC-MS/MS and Western blot; assay type: cell-based; conditions: labelled compound; 4 μM cel-p, 4 h, living neurons, with or without OGD
T2 construct: endogenous full-length protein in living primary cortical neurons or their lysate
T2 sequence (P63159 2-215): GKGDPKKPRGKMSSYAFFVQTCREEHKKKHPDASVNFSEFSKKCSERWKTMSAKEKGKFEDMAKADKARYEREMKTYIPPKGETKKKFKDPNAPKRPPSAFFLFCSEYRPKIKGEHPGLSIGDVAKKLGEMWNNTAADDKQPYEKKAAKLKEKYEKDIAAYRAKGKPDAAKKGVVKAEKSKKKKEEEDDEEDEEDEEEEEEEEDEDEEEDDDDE

HMGB1 A box [3] = target: T3, HMGB1 A box (Homo sapiens, UniProt P09429); assay: in-gel fluorescence labelling by probe, click TAMRA azide; assay type: binding; conditions: labelled compound; labelling in presence of IAA; PBS
T3 construct: A box domain, residues 1-89, N-terminal 6-His tag, modified pET-24d, E. coli BL21
T3 sequence (P09429 1-89): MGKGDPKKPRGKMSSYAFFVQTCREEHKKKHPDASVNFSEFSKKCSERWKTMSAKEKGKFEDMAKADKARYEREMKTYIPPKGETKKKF

HMGB1 B box [4] = target: T1, HMGB1 B box; assay: gel-based competition with IAA-yne labelling, click TAMRA fluorescence; assay type: binding; conditions: covalent; blocks IAA-yne labelling of Cys; PBS
[5] = target: T4, recombinant human HMGB1 protein (full-length) (Homo sapiens, UniProt P09429); assay: as above; assay type: binding; conditions: covalent; Cys 106 of disulfide form or Cys 23, 45, 106 of fully reduced form, also other sites; PBS
T4 construct: full-length recombinant protein, commercial (Abcam); disulfide form or DTT-reduced
T4 sequence (P09429 1-215): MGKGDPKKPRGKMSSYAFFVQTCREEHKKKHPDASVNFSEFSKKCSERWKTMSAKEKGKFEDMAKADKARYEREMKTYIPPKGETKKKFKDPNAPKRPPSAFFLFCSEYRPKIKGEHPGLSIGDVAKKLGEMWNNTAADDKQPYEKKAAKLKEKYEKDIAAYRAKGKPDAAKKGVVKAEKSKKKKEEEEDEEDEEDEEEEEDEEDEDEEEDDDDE

HMGB1 A box [6] = target: T3, HMGB1 A box; assay: as above; assay type: binding; conditions: covalent; blocks IAA-yne labelling of Cys; PBS
[7] = target: T2, HMGB1 (primary rat cortical neurons); assay: CETSA in neuron lysate, Western blot; competition with cel-p pull-down; assay type: biochemical; conditions: 20 μM cel, 1 h, 37-82 °C (CETSA); 8 × cel in pull-down

SMILES | in-gel fluorescence labelling by probe, click TAMRA azide (HMGB1 B box [1]) | probe pull-down, TMT LC-MS/MS and Western blot [2] | in-gel fluorescence labelling by probe, click TAMRA azide (HMGB1 A box [3]) | gel-based competition with IAA-yne labelling, click TAMRA fluorescence (HMGB1 B box [4]) | gel-based competition with IAA-yne labelling, click TAMRA fluorescence [5] | gel-based competition with IAA-yne labelling, click TAMRA fluorescence (HMGB1 A box [6]) | CETSA in neuron lysate, Western blot; competition with cel-p pull-down [7]
C#CCNC(=O)[C@]1(C)CC[C@]2(C)CC[C@]3(C)C4=CC=C5C(=CC(=O)C(O)=C5C)[C@]4(C)CC[C@@]3(C)[C@@H]2C1 [cel-p] | The binding of cel-p to the A and B boxes could not be blocked by IAA | could completely compete the binding of cel-p to HMGB1 | The binding of cel-p to the A and B boxes could not be blocked by IAA |  |  |  | 
CC1=C(O)C(=O)C=C2C1=CC=C1[C@@]2(C)CC[C@@]2(C)[C@@H]3C[C@](C)(C(=O)O)CC[C@]3(C)CC[C@]12C [cel, celastrol] |  |  |  | Cel also almost completely blocked the binding of IAA-yne to the Cys group | Cel almost completely competed for the binding of IAA-yne to HMGB1 or DTT reduced HMGB1 | Cel also almost completely blocked the binding of IAA-yne to the Cys group | The CETSA results also proved the direct binding of cel and HMGB1
